# Results taken from paper PMC3215729, “Rv2607 from Mycobacterium tuberculosis Is a Pyridoxine 5′-Phosphate Oxidase with Unusual Substrate Specificity” (PLoS ONE, 2011).
# Biological target: T1, Rv2607 (PNPOx) (Mycobacterium tuberculosis, UniProt P9WIJ1)
# T1 construct: gene pdxH
# T1 sequence (P9WIJ1 whole entry): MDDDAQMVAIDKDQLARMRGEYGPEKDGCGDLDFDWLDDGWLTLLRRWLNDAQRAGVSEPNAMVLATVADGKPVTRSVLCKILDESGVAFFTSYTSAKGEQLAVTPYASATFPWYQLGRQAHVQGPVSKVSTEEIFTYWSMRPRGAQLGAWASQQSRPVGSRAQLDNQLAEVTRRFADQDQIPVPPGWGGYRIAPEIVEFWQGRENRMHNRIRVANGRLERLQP
smiles,measurement,value
Cc1cc2nc3c(=O)[nH]c(=O)nc-3n(C[C@H](O)[C@H](O)[C@H](O)COP(=O)(O)O)c2cc1C [FMN],native nESI-MS of intact complex; ESI-MS identification of extracted cofactor,The yellow cofactor bound tightly to Rv2607 as purified and was unambiguously identified as FMN
